Data as given in patent US20210198284A1, “GOLD COMPOSITIONS AND METHODS OF USE THEREOF” (THE UNIVERSITY OF MASSACHUSETTS, priority 2018, published 2021).
Where two headings read alike, the source gives them in different places.

What was measured:
A549 cells = experiment: Cytotoxicity assay (resazurin); type: cell-based; conditions: 20 h, mean±S.E.M. from two independent experiments
In short: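 A549 cells (5×10^3/well) were exposed to two-fold serial dilutions from 128 μg/mL (compounds 9-17 from 1,280 μg/mL) for 20 h at 37 °C. Resazurin was then added for 3 h and fluorescence read at ex 560/em 590 nm. IC50 came from curve fitting of inhibition vs log concentration; triplicates, repeated twice.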

[1] = Log P determination (n-octanol/water, FAAS)
In short: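 Shake-flask partition between mutually saturated n-octanol and water; Au in each phase quantified by flame AAS against aqueous Au-standard and n-octanol calibration curves. Compound shaken ~4 h in water then 1 h with octanol, or 3-4 h in both phases then diluted and shaken 1 h; log P = log([oct]/[water]).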

Row | Substance | IC50 against A549 cells (A549 cells) [µg/mL] | Log P ([1]; n-octanol/water, gold by FAAS) | Log P [1]
1 | (2,3,4,6-Tetra-O-acetyl-1-thio-β-D-glucopyranosato) (triethylphosphine) gold(I) [Compound 1, reference compound] | 7.7 ± 1.3 | 0.56 | 
2 | (2-Aminobenzenethiolato)(triethylphosphine) gold(I) [Compound 19] | 7.5 ± 0.1 |  | 0.61
3 | (2-Mercaptoethanolato)(trimethylphosphine) gold (I) [Compound 27] | 12.3 ± 3.1 |  | −0.15
4 | [2,3,4,6-Tetra-O-acetyl-α-D-glucopyranosyl (1→4)-2,3,6-tri-O-acetyl-1-thio-β-D-glucopyranosato](triethylphosphine) gold(I) [Compound 5] | 15.2 ± 0.3 |  | 0.45
